Experiment: Appetite reducing effects of coadministered procyanidin and hydroxycitric acid: voluntary food intake, placebo-controlled cross-over study
Assay type: in vivo, male Wistar rats
Conditions: 155 mg hydroxycitric acid per kg rat alone, single intragastric bolus, vs placebo, paired student t, FIG. 2
Description: The appetite suppressive effects of a combination of procyanidin (pine bark extract containing 65 wt. % procyanidin) and hydroxycitric acid (Regulator™ ex HOB Ireland, Dublin, Ireland) was tested in male Wistar rats. In a placebo-controlled cross-over study, either 13 mg procyanidin per kg rat (A), 155 mg hydroxycitric acid per kg rat (B) or 13 mg procyanidin per kg rat and 155 mg hydroxycitric acid per kg rat (C) were administered as a single bolus intragastrically at 30 min before onset of the active (dark) period.
Subsequently, voluntary food intake was recorded continuously for 48 hours. Following this period, the experiment was repeated as part of the cross-over design (that is, rats which first received the procyanidins now received the placebo and vice versa).
Results are shown as absolute cumulative food intake after 1,2 and 4 hours (see FIG. 2). Statistical analysis (paired student t) was made of the data.

O=C(O)CC(O)(C(=O)O)C(O)C(=O)O (centres unmarked) [hydroxycitric acid]
absolute cumulative food intake after 1, 2 and 4 hours: did not result in a significant decrease
absolute cumulative food intake after 1, 2 and 4 hours (listed as HCA): did not show any significant appetite reducing effect
